US12083105B2, “Compositions and methods for treating adult-onset neuronal ceroid lipofuscinosis (Kufs disease)” (CORNELL UNIVERSITY, priority 2020, dated 2024)

How the values were obtained:
Assay type in all cases: cell-based, human
SNAP-25 [1] = test: Total SNAP-25 levels in ANCL iNs (quantitative immunoblotting); conditions: 72 h, compared to vehicle only control, FIG. 7B
Experimental: (§1) ANCL patient-derived fibroblasts were treated with 200 μM of L1 or Dfx, or vehicle (0.1% DMSO=Control) for 72 h, before measuring the UV-Vis absorbance spectra of immunoprecipitated CSPα eluted by trypsinization (solid lines). Spectra were re-read after 10 min of 0.1 N HCl treatment (dashed lines). The experiments shown in FIGS. 7B-7I, were conducted using ANCL fibroblasts converted to iNs using BAM+ND1 technique. […] Quantitative immunoblotting was used to measure levels of oligomerized and fully palmitoylated CSPα as well as total SNAP-25. Oligo=oligomers; Palm=palmitoylated. […] The interaction of CSPα with SNAP-25 in ANCL iNs was measured by immunoprecipitating SNAP-25 followed by quantitative immunoblotting of co-immunoprecipitated CSPα (normalized to SNAP-25 IP). Note that mainly CSPα monomers and not oligomers were detected bound to SNAP-25. Control=control sham IP without IgG. […] Turnover of SNAP-25 was determined by cycloheximide chase, while maintaining the iron-chelators or vehicle in the medium. […] In the experiments shown in FIGS. 7E-7G, ANCL iNs treated with L1, Dfx, or vehicle for 56 d and analyzed. […] The levels of lipofuscin were determined by ELISA. In the experiments shown in FIGS. 7H-7I 56 day old untreated ANCL iNs were treated with L1, Dfx, or vehicle, and analyzed. […]

SNAP-25 [2] = test: SNAP-25 turnover in ANCL iNs by cycloheximide chase; conditions: 72 h pretreatment, cycloheximide chase in presence of chelator, FIG. 7D
Experimental: as §1

ANCL iNs = test: Lipofuscin autofluorescence in ANCL iNs; conditions: ANCL iNs treated for 56 d from iN conversion (prevention); compared to control; FIG. 7E
Experimental: as §1, with “SNAP-25.” for “SNAP-25. Control=control sham IP without IgG.”
Effect of iron chelators on the accumulation of lipofuscin was monitored by ELISA for lipofuscin or based on lipofuscin autofluorescence. […]

CC(=O)N(O)CCCCCNC(=O)CCC(=O)N(O)CCCCCNC(=O)CCC(=O)N(O)CCCCCN [Dfx, N′-[5-(Acetyl-hydroxy-amino)pentyl]-N-[5-[3-(5-aminopentyl-hydroxy-carbamoyl)propanoylamino]pentyl]-N-hydroxy-butane diamide] was tested. Which SNAP-25 levels (SNAP-25 [1]) did it give?
Its SNAP-25 levels is “augmented”.

And the “turnover of SNAP-25” value (SNAP-25 [2])?
Its value is “decreased turnover”.

And the lipofuscin autofluorescence (ANCL iNs)?
Its lipofuscin autofluorescence is “reduced”.

What does the source list for Cc1c(O)c(=O)ccn1C [L1, 3-hydroxy-1,2-dimethyl-4(1H)-pyridone]?
SNAP-25 levels (SNAP-25 [1]): augmented; turnover of SNAP-25 (SNAP-25 [2]): decreased turnover; lipofuscin autofluorescence (ANCL iNs): reduced
